# Measured values from patent US8741940B2, “Microbicidal composition” (Rohm and Haas Company, priority 2005, dated 2014).
# Structures can show the parent of a compound that is named as a salt. Where two headings read alike, the source gives them in different places.
# Assays:
# Type in all cases: cell-based
# [1] = tested on: Escherichia coli (E. coli—ATCC #8739); assay: Synergy test, microtiter plate high resolution MIC assay, bacterium in M9GY medium; design: key to SI (synergy index): SI = Qa/QA + Qb/QB; >1 antagonism, lower SI = greater synergy; Qa (First Component A) / Qb (Second Component B): unit: ppm; conditions: for MIC: Escherichia coli
# Description: (§1) When the sum of Qa/QA and Qb/QB is greater than one, antagonism is indicated. […] The lower the SI, the greater the synergy shown by that particular mixture. The minimum inhibitory concentration (MIC) of a microbicide is the lowest concentration tested under a specific set of conditions that prevents the growth of added microorganisms.
# (§2) Synergy tests were conducted using standard microtiter plate assays with media designed for optimal growth of the test microorganism. Minimal salt medium supplemented with 0.2% glucose and 0.1% yeast extract (M9GY medium) was used for testing bacteria; Potato Dextrose Broth (PDB medium) was used for testing yeast and mold. In this method, a wide range of combinations of microbicides and other personal care raw materials was tested by conducting high resolution MIC assays in the presence of various concentrations of BBIT or MBIT. High resolution MICs were determined by adding varying amounts of microbicide to one column of a microtitre plate and doing subsequent […] dilutions using an automated liquid handling system to obtain a series of endpoints ranging from 2 ppm to 10,000 ppm active ingredient.
# (§3) The bacteria were used at a concentration of about 5 ×10^6 bacteria per mL and the yeast and mold at 5×10^5 fungi per mL. These microorganisms are representative of natural contaminants in many consumer and industrial applications. […] (yeast and mold) or 30° C. (bacteria).
# (§4) In each test, First Component (A) was BBIT and the Second Component (B) was the other commercial microbicide.
# (§5) In each test, First Component (A) was MBIT and the Second Component (B) was the other commercial microbicide.
# [2] = tested on: Candida albicans (C. albicans—ATCC 10231); assay: Synergy test, microtiter plate high resolution MIC assay, yeast in PDB medium; design: key to SI (synergy index): SI = Qa/QA + Qb/QB; >1 antagonism, lower SI = greater synergy; Qb (Second Component B) / Qa (First Component A): unit: ppm; conditions: for MIC: Candida albicans
# Description: as §1, §2, §3, §4, §5
# [3] = tested on: Aspergillus niger (A. niger—ATCC 16404); assay: Synergy test, microtiter plate high resolution MIC assay, mold in PDB medium; design: key to SI (synergy index): SI = Qa/QA + Qb/QB; >1 antagonism, lower SI = greater synergy; Qb (Second Component B) / Qa (First Component A): unit: ppm; conditions: for MIC: Aspergillus niger
# Description: as §1, §2, §3, §4, §5
# [4] = A=MBIT, B=2-bromo-2-nitro-propane-1,3-diol (BNPD), E. coli 8739 - M9GY, 24 hours
# [5] = A=MBIT, B=2-bromo-2-nitro-propane-1,3-diol (BNPD), C. albicans 10231 - PDB, 24 hours
# [6] = ATCC10231, C. albicans 10231, PDB, 48 hours, 25° C., read-out: MIC of the component acting alone (QA / QB)
# [7] = A=MBIT, B=2-bromo-2-nitro-propane-1,3-diol (BNPD), A. niger 16404 - PDB, 4 days
# [8] = A=MBIT, B=Benzisothiazolinone (BIT), E. coli 8739 - M9GY, 24 hours
# [9] = A=MBIT, B=Benzisothiazolinone (BIT), C. albicans 10231 - PDB, 48 hours
# [10] = A. niger 16404, PDB, 7 days, 25° C.
# [11] = A=MBIT, B=Benzisothiazolinone (BIT), A. niger 16404 - PDB, 7 days
# [12] = A=MBIT, B=Benzyl alcohol, E. coli 8739 - M9GY, 24 hours
# [13] = A=MBIT, B=Benzyl alcohol, C. albicans 10231 - PDB, 48 hours
# [14] = A=MBIT, B=Benzyl alcohol, A. niger 16404 - PDB, 4 days
# [15] = A=MBIT, B=Caprylyl glycol, E. coli 8739 - M9GY, 24 hours
# [16] = A=MBIT, B=Caprylyl glycol, C. albicans 10231 - PDB, 24 hours
# [17] = A=MBIT, B=Caprylyl glycol, A. niger 16404 - PDB, 4 days
# [18] = A=MBIT, B=DMDM Hydantoin (DMDMH), E. coli 8739 - M9GY, 24 hours
# [19] = A=MBIT, B=DMDM Hydantoin (DMDMH), C. albicans 10231 - PDB, 24 hours
# [20] = A=MBIT, B=DMDM Hydantoin (DMDMH), A. niger 16404 - PDB, 3 days
# [21] = A=MBIT, B=dithio-2,2′-bis(N-methylbenzamide) (DTBMA), E. coli 8739 - M9GY, 24 hours
# [22] = A=MBIT, B=dithio-2,2′-bis(N-methylbenzamide) (DTBMA), C. albicans 10231 - PDB, 24 hours
# [23] = A=MBIT, B=dithio-2,2′-bis(N-methylbenzamide) (DTBMA), A. niger 16404 - PDB, 3 days
# [24] = C. albicans 10231, PDB, 24 hours
smiles,measurement,setting,value
"O=[N+]([O-])C(Br)(CO)CO [BNPD, 2-bromo-2-nitro-propane-1,3-diol]",Qb (Second Component B),[1]; [4],8
same,SI (synergy index),[1]; [4],1.00
same,MIC,"[1]; ATCC8739, E. coli 8739, M9GY, 48 hours, 30° C., read-out: MIC of the component acting alone (QA / QB)",10 µg/mL
same,Qb (Second Component B),[2]; [5],1000
same,SI (synergy index),[2]; [5],1.00
same,MIC,[2]; [6],2000 µg/mL
same,Qb (Second Component B),[3]; [7],2000
same,SI (synergy index),[3]; [7],1.00
same,MIC,"[3]; ATCC16404, 168 h, A. niger 16404, PDB, 7 days, 25° C., read-out: MIC of the component acting alone (QA / QB)",2000 µg/mL
CC(C)(C)CC(C)(C)c1ccc(OCCOCC[N+](C)(C)Cc2ccccc2)cc1 [Benzethonium chloride],Qb (Second Component B),"[1]; A=MBIT, B=Benzethonium chloride (Hyamine 1622), E. coli 8739 - M9GY, 24 hours",20
same,Qb (Second Component B),"[2]; A=MBIT, B=Benzethonium chloride (Hyamine 1622), C. albicans 10231 - PDB, 24 hours",4
same,Qb (Second Component B),"[3]; A=MBIT, B=Benzethonium chloride (Hyamine 1622), A. niger 16404 - PDB, 4 days",10
"O=c1[nH]sc2ccccc12 [Benzisothiazolinone, 1,2-benzisothiazolin-3-one]",Qb (Second Component B),[1]; [8],20
same,SI (synergy index),[1]; [8],1.00
same,MIC of the component acting alone (QA / QB),"[1]; E. coli 8739, M9GY, 72 hours, 30° C.",8 ppm
same,Qb (Second Component B),[2]; [9],30
same,SI (synergy index),[2]; [9],1.00
same,MIC of the component acting alone (QA / QB),"[2]; C. albicans 10231, PDB, 48 hours, 25° C.",30 ppm
same,MIC of the component acting alone (QA / QB),[3]; [10],100 ppm
same,Qb (Second Component B),[3]; [11],300
same,SI (synergy index),[3]; [11],1.00
OCc1ccccc1 [Benzyl alcohol],Qb (Second Component B),[1]; [12],5000
same,SI (synergy index),[1]; [12],1.00
same,MIC,"[1]; ATCC8739, E. coli 8739, M9GY, 24 hours, 30° C., read-out: MIC of the component acting alone (QA / QB)",2000 µg/mL
same,Qb (Second Component B),[2]; [13],4000
same,SI (synergy index),[2]; [13],1.00
same,MIC,[2]; [6],3000 µg/mL
same,Qb (Second Component B),[3]; [14],6000
same,SI (synergy index),[3]; [14],1.00
same,MIC,"[3]; ATCC16404, 72 h, A. niger 16404, PDB, 3 days, 25° C., read-out: MIC of the component acting alone (QA / QB)",5000 µg/mL
OCCCCO [Butylene glycol],Qb (Second Component B),[1],20000
same,SI (synergy index),[1],1.00
same,MIC,"[1]; ATCC8739, 48 h, read-out: MIC of the component acting alone (QA / QB)",20000 µg/mL
same,Qb (Second Component B),[2],20000
same,SI (synergy index),[2],1.00
same,MIC,"[2]; ATCC10231, 24 h, read-out: MIC of the component acting alone (QA / QB)",20000 µg/mL
same,Qb (Second Component B),[3],10000
same,SI (synergy index),[3],1.00
same,MIC,"[3]; ATCC16404, 72 h, read-out: MIC of the component acting alone (QA / QB)",10000 µg/mL
CCCCCCC(O)CO (centres unmarked) [Caprylyl glycol],Qb (Second Component B),[1]; [15],2000
same,SI (synergy index),[1]; [15],1.00
same,MIC of the component acting alone (QA / QB),"[1]; E. coli 8739, M9GY, 24 hours, 30° C.",2000 ppm
same,Qb (Second Component B),[2]; [16],4000
same,SI (synergy index),[2]; [16],1.00
same,MIC of the component acting alone (QA / QB),"[2]; C. albicans 10231, PDB, 24 hours, 25° C.",3000 ppm
same,MIC of the component acting alone (QA / QB),[3]; [10],3000 ppm
same,Qb (Second Component B),[3]; [17],1000
same,SI (synergy index),[3]; [17],1.00
"CC1(C)C(=O)N(CO)C(=O)N1CO [DMDM Hydantoin, 1,3-dimethylol-5,5-dimethylhydantoin]",Qb (Second Component B),[1]; [18],50
same,SI (synergy index),[1]; [18],1.00
same,SI,"[1]; E. coli 8739 - M9GY, 72 hours, BBIT + DMDMH",1.00
same,Qb (Second Component B = DMDMH),"[1]; E. coli 8739 - M9GY, 72 hours, DMDMH alone (Qa 0) or in mixture with BBIT",200
same,Qb (Second Component B),[2]; [19],3000
same,SI (synergy index),[2]; [19],1.00
same,SI,"[2]; C. albicans 10231 - PDB, 24 hours, BBIT + DMDMH",1.00
same,Qb (Second Component B = DMDMH),"[2]; C. albicans 10231 - PDB, 24 hours, DMDMH alone (Qa 0) or in mixture with BBIT",3000
same,SI,"[3]; A. niger 16404 - PDB, 7 days, BBIT + DMDMH",1.00
same,Qb (Second Component B = DMDMH),"[3]; A. niger 16404 - PDB, 7 days, DMDMH alone (Qa 0) or in mixture with BBIT",1000
same,Qb (Second Component B),[3]; [20],1000
same,SI (synergy index),[3]; [20],1.00
"CNC(=O)c1ccccc1SSc1ccccc1C(=O)NC [DTBMA, dithio-2,2′-bis(N-methylbenzamide)]",Qb (Second Component B),[1]; [21],80
same,SI (synergy index),[1]; [21],1.00
same,SI,"[1]; E. coli 8739 - M9GY, 48 hours, BBIT + DTBMA",1.00
same,Qb (Second Component B = DTBMA),"[1]; E. coli 8739 - M9GY, 48 hours, DTBMA alone (Qa 0) or in mixture with BBIT",60
same,Qb (Second Component B),[2]; [22],2000
same,SI (synergy index),[2]; [22],1.00
same,SI,"[2]; C. albicans 10231 - PDB, 24 hours, BBIT + DTBMA",1.00
same,Qb (Second Component B = DTBMA),"[2]; C. albicans 10231 - PDB, 24 hours, DTBMA alone (Qa 0) or in mixture with BBIT",2000
same,SI,"[3]; A. niger 16404 - PDB, 7 days, BBIT + DTBMA",1.00
same,Qb (Second Component B = DTBMA),"[3]; A. niger 16404 - PDB, 7 days, DTBMA alone (Qa 0) or in mixture with BBIT",1000
same,Qb (Second Component B),[3]; [23],800
same,SI (synergy index),[3]; [23],1.00
"CC(=O)C1C(=O)C=C(C)OC1=O (centres unmarked) [Dehydroacetic acid, sodium salt]",SI (synergy index),"[1]; E. coli 8739, M9GY, 24 hours",1.00
same,MIC,"[1]; ATCC8739, E. coli 8739, M9GY, 24 hours, alone where Qa = 0, otherwise in the mixture, read-out: Qb (concentration of second component producing the end point, MIC)",20000 µg/mL
same,SI (synergy index),[2]; [24],1.00
same,MIC,"[2]; ATCC10231, C. albicans 10231, PDB, 24 hours, alone where Qa = 0, otherwise in the mixture, read-out: Qb (concentration of second component producing the end point, MIC)",40 µg/mL
same,SI (synergy index),"[3]; A. niger 16404, PDB, 7 days",1.00
same,MIC,"[3]; ATCC16404, 168 h, A. niger 16404, PDB, 7 days, alone where Qa = 0, otherwise in the mixture, read-out: Qb (concentration of second component producing the end point, MIC)",200 µg/mL
"O=C(O)CN(CCN(CC(=O)O)CC(=O)O)CC(=O)O [EDTA, Ethylenediamine tetraacetic acid]",Qb (Second Component B = EDTA),[1],40000
same,SI,"[1]; E. coli 8739 - M9GY, 72 hours, BBIT + EDTA",1.00
same,Qb (Second Component B = EDTA),[2],600
same,SI,"[2]; C. albicans 10231 - PDB, 24 hours, BBIT + EDTA",1.00
same,Qb (Second Component B = EDTA),[3],1600
same,SI,"[3]; A. niger 16404 - PDB, 7 days, BBIT + EDTA",1.00
N=C(N)c1ccc(OCCCCCCOc2ccc(C(=N)N)cc2)cc1.O=S(=O)(O)CCO.O=S(=O)(O)CCO [Hexamidine diisethionate],SI (synergy index),"[1]; E. coli 8739, M9GY, 24 hours",1.00
same,"Qb (concentration of second component producing the end point, MIC)","[1]; E. coli 8739, M9GY, 24 hours, alone where Qa = 0, otherwise in the mixture",8 ppm
same,SI,"[1]; E. coli 8739 - M9GY, 48 hours, BBIT + hexamidine diisethionate",1.00
same,Qb (Second Component B = Hexamidine diisethionate),"[1]; E. coli 8739 - M9GY, 48 hours, hexamidine diisethionate alone (Qa 0) or in mixture with BBIT",100
same,SI (synergy index),[2]; [24],1.00
same,"Qb (concentration of second component producing the end point, MIC)","[2]; C. albicans 10231, PDB, 24 hours, alone where Qa = 0, otherwise in the mixture",10 ppm
same,SI,"[2]; C. albicans 10231 - PDB, 24 hours, BBIT + hexamidine diisethionate",1.00
same,Qb (Second Component B = Hexamidine diisethionate),"[2]; C. albicans 10231 - PDB, 24 hours, hexamidine diisethionate alone (Qa 0) or in mixture with BBIT",10
